Results from US9840464B2, “IAP binding compounds” (TetraLogic Birinapant UK Ltd., priority 2004, dated 2017).
pKd: −log10 of the molar value. Where a name gives a salt, the structure may show the parent alone.

The compounds below were run against XIAP-BIR3 (Homo sapiens, UniProt P98170) (assay: XIAP BIR3 fluorescence polarization binding assay (competition with AbuRPF-K(5-Fam)-NH2)). Conditions: 5 nM AbuRPF-K(5-Fam)-NH2, 40 nM XIAP-BIR3, pH 7.5; Kd calculated from measured IC50; read-out: KD Range.
XIAP-BIR3, sequence (P98170 241-356 limits assumed): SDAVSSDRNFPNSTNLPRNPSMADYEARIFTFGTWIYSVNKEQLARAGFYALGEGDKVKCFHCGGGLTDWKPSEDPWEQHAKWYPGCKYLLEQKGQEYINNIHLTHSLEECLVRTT
Method: Binding constants (Kd) were measured using fluorescence polarization as described by Zaneta Nikolovska-Coleska, Renxiao Wang, Xueliang Fang, Hongguang Pan, York Tomita, Peng Li, Peter P. Roller, Krzysztof Krajewski, Naoyuki Saito, Jeanne Stuckey and Shaomeng Wang, in “Development and Optimization of a Binding Assay for the XIAP BIR3 Domain Using Fluorescence Polarization”, Analytical Biochemistry 2004, 332, 261-273). Briefly, test IAP binding compounds at various concentrations for binding measurements were mixed with 5 nM fluorescently labeled peptide (AbuRPF-K(5-Fam)-NH2) and 40 nM of XIAP-BIR3 for 15 minutes at room temperature in 100 μL of 0.1M Potassium Phosphate buffer, pH 7.5 containing 100 μg/ml bovine γ-globulin. Following incubation, the polarization values (mP) were measured on a Victor^2V using a 485 nm excitation filter and a 520 nm emission filter. IC50 values were determined from the plot using nonlinear least-squares analysis using GraphPad Prism. The Kd values of competitive inhibitors were calculated using the equation described by Zaneta Nikolovska-Coleska et al. based upon the measured IC50 values, the Kd value of the probe and XIAP BIR3 complex, and the concentrations of the protein and probe in the competition assay. In various examples of IAP binding or IAP binding cargo molecules ranges for Kd values: Group A: Kd<0.1 μM; Group B: Kd=0.1-1 μM; Group C: Kd=1-10 μM; Group D: Kd>10 μM.

Compound | pKd
CC[C@H](NC(=O)[C@H](C)N)C(=O)N1C[C@@H](Oc2ccccc2)C[C@H]1Cc1coc2ccccc12 [Entry 5-54] | > 7.00
CC(N)C(=O)NC(C(=O)N1CCCC1COc1ccccc1)C(C)C (stereo not shown) [Entry 2-3] | 6.00 to 7.00
C#CCn1cc(CC2CCCN2C(=O)C(NC(=O)C(C)N)C(C)C)c2ccccc21 (stereo not shown) [Entry 14-103] | > 7.00
2-Amino-N-{2-methyl-1-[2-(5-pyridin-2-yl-benzofuran-3-ylmethyl)-pyrrolidine-1-carbonyl]-propyl}-propionamide [Entry 8-79] | 5.00 to 6.00
CC(C)[C@H](NC(=O)[C@H](C)N)C(=O)N1CCC[C@H]1Cc1coc2ccccc12 [Entry 5-41, 2S-Amino-N-[1S-(2S-benzofuran-3-ylmethyl-pyrrolidine-1-carbonyl)-2-methyl-propyl]-propionamide] | > 7.00
CNC(C)C(=O)NC(C(=O)N1CCCC1Cc1c(-c2cccs2)[nH]c2cc(F)ccc12)C(C)(C)C (stereo not shown) [Entry 15-108] | > 7.00
CCc1ccccc1OCCC[C@@H]1C[C@H](Oc2ccccc2)CN1C(=O)[C@@H](NC(=O)[C@H](C)NC)C(C)(C)C [Entry 4-28] | 6.00 to 7.00
CC(N)C(=O)NC(C(=O)N1CCCC1Cc1coc2ccc(O)cc12)C(C)C (stereo not shown) [Entry 6-75, 2-Amino-N-{1-[2-(5-hydroxy-benzofuran-3-ylmethyl)-pyrrolidine-1-carbonyl]-2-methyl-propyl}-propionamide] | 5.00 to 6.00
C[C@H](N)C(=O)N[C@H](C(=O)N1C[C@@H](Oc2ccccc2)C[C@H]1Cc1coc2ccccc12)C(C)(C)C [Entry 5-40] | > 7.00
CCC(NC(=O)C(C)N)C(=O)N1CCCC1Cc1coc2ccccc12 (stereo not shown) [Entry 5-59] | 6.00 to 7.00
CNC(C)C(=O)NC(C(=O)N1CCCC1Cc1cn(C(C)=O)c2cc(F)ccc12)C1CCCCC1 (stereo not shown) [Entry 14-97] | 6.00 to 7.00
COc1ccccc1OC/C=C/[C@@H]1C[C@H](Oc2ccccc2)CN1C(=O)[C@@H](NC(=O)[C@H](C)N)C(C)C [Entry 3-18] | 6.00 to 7.00
CC(C)[C@H](NC(=O)[C@H](C)N)C(=O)N1C[C@@H](Oc2ccccc2)C[C@H]1/C=C/COc1cccc(Br)c1 [Entry 3-14] | 6.00 to 7.00
CC(C)[C@H](NC(=O)[C@H](C)N)C(=O)N1C[C@@H](Oc2ccccc2)C[C@H]1Cc1coc2ccccc12 [Entry 5-39] | > 7.00
CC(C)Oc1ccccc1OCCCC1CCCN1C(=O)C(NC(=O)C(C)N)C(C)C (stereo not shown) [Entry 4-35] | 5.00 to 6.00
CNC(C)C(=O)NC(C(=O)N1CCCC1COc1ccccc1-c1ccccc1)C(C)C (stereo not shown) [Entry 2-5] | 6.00 to 7.00
CCNC(C)C(=O)NC(C(=O)N1CCCC1Cc1coc2ccccc12)C(C)C (stereo not shown) [Entry 5-68] | 5.00 to 6.00
CC(N)C(=O)NC(C(=O)N1CCCC1Cc1c(-c2ccccc2)[nH]c2ccccc12)C(C)C (stereo not shown) [Entry 9-88] | 5.00 to 6.00
CCc1ccccc1OCCCC1CCCN1C(=O)C(NC(=O)C(C)N)C(C)C (stereo not shown) [Entry 4-34] | 5.00 to 6.00
CC(C)[C@H](NC(=O)[C@H](C)N)C(=O)N1C[C@@H](Oc2ccccc2)C[C@H]1COc1ccccc1 [Entry 2-1, 2S-Amino-N-[2-methyl-1S-(4S-phenoxy-2S-phenoxymethyl-pyrrolidine-1-carbonyl)-propyl]-propionamide hydrochloride] | 6.00 to 7.00
C#CCOC(C)[C@H](NC(=O)[C@H](C)N)C(=O)N1CCC[C@H]1Cc1coc2ccccc12 (stereo partly shown) [Entry 5-60] | > 7.00
CC(C)[C@H](NC(=O)[C@H](C)N)C(=O)N1CCC[C@H]1CCCOc1ccccc1-c1ccccc1 [Entry 4-32] | 6.00 to 7.00
C[C@H](N)C(=O)N[C@H]1CCCNC(=O)CCc2oc3ccccc3c2C[C@@H]2CCCN2C1=O [Entry 11-91, Ornithine-derived Lactam] | 6.00 to 7.00

Further lines, results first:

pKd | Compound
6.00 to 7.00 | Cc1cccc(C)c1OCCC[C@@H]1C[C@H](Oc2ccccc2)CN1C(=O)[C@@H](NC(=O)[C@H](C)N)C(C)C [Entry 4-31]
6.00 to 7.00 | CN[C@@H](C)C(=O)N[C@H](C(=O)N1C[C@@H](Oc2ccccc2)C[C@H]1COc1ccccc1)C(C)C [Entry 2-2]
6.00 to 7.00 | CCc1ccccc1OCCC[C@@H]1C[C@H](Oc2ccccc2)CN1C(=O)[C@@H](NC(=O)[C@H](C)NC)C(C)C [Entry 4-26]
5.00 to 6.00 | CC(N)C(=O)NC(C(=O)N1CC(Oc2ccccc2)CC1Cc1coc2ccccc12)C(C)C (single isomer, unassigned) [Entry 5-53]
< 5.00 | CC(C)C(NC(=O)CN)C(=O)N1CCCC1Cc1coc2ccccc12 (stereo not shown) [Entry 5-46]
< 5.00 | Cc1cccc(C)c1OCCCC1CCCN1C(=O)C(NC(=O)C(C)N)C(C)C (stereo not shown) [Entry 4-38]
6.00 to 7.00 | CC(C)[C@H](NC(=O)[C@H](C)N)C(=O)N1C[C@@H](Oc2ccccc2)C[C@H]1/C=C/COc1cccc(Cl)c1Cl [Entry 3-10]
> 7.00 | CC[C@H](N)C(=O)N[C@H](C(=O)N1C[C@@H](Oc2ccccc2)C[C@H]1Cc1coc2ccccc12)C(C)C [Entry 5-44]
6.00 to 7.00 | CC(C)[C@H](NC(=O)[C@H](C)N)C(=O)N1C[C@@H](Oc2ccccc2)C[C@H]1/C=C/COc1ccccc1 [Entry 3-8]
< 5.00 | CCc1ccccc1OCCCC1CC(Oc2ccccc2)CN1C(=O)C(NC(=O)CN)C(C)C (stereo not shown) [Entry 4-27]
6.00 to 7.00 | CCC(NC)C(=O)NC(C(=O)N1CCCC1Cc1cn(CCOCCOCCOC)c2ccccc12)C1CCCCC1 (stereo not shown) [Entry 16-110]
< 5.00 | CC(N)C(=O)NC(C(=O)N1CCCC1Cc1coc2ccc(OCC3CC3)cc12)C(C)C (stereo not shown) [Entry 7-77]
< 5.00 | CC(C)C(NC(=O)C(C)(C)N)C(=O)N1CCCC1Cc1coc2ccccc12 (stereo not shown) [Entry 5-64]
< 5.00 | CC(NC(=O)OC(C)(C)C)C(=O)NC(C(=O)N1CCCC1Cc1cn(C(=O)OC(C)(C)C)c2ccccc12)C(C)C (stereo not shown) [Entry 14-101]
5.00 to 6.00 | CC(NCC1CC1)C(=O)NC(C(=O)N1CCCC1Cc1coc2ccccc12)C(C)C (stereo not shown) [Entry 5-70]
> 7.00 | CN[C@@H](C)C(=O)N[C@H](C(=O)N1C[C@@H](Oc2ccccc2)C[C@H]1Cc1coc2ccccc12)C1CCCCC1 [Entry 5-43]
6.00 to 7.00 | CCc1ccccc1OC/C=C/[C@@H]1C[C@H](Oc2ccccc2)CN1C(=O)[C@@H](NC(=O)[C@H](C)N)C(C)C [Entry 3-12, trans-2S-Amino-N-(1S-{2S-[3-(2-ethyl-phenoxy)-propenyl]-4S-phenoxy-pyrrolidine-1-carbonyl}-2-methyl-propyl)-propionamide]
6.00 to 7.00 | CC(C)[C@H](NC(=O)[C@H](C)N)C(=O)N1CCC[C@H]1Cc1c[nH]c2ccccc12 [Entry 14-99, 2S-Amino-N-{1S-[2S-(1H-indol-3-ylmethyl)-pyrrolidine-1-carbonyl]-2-methyl-propyl}-propionamide]
6.00 to 7.00 | CC(N)C(=O)NC(C(=O)N1CCCC1Cc1c(-c2nccs2)oc2ccccc12)C(C)C (stereo not shown) [Entry 9-85]
6.00 to 7.00 | CC(C)[C@H](NC(=O)[C@H](C)N)C(=O)N1C[C@@H](Oc2ccccc2)C[C@H]1/C=C/COc1ccc(Cl)cc1Cl [Entry 3-11]
6.00 to 7.00 | CC(C)Oc1ccccc1OC/C=C/[C@@H]1C[C@H](Oc2ccccc2)CN1C(=O)[C@@H](NC(=O)[C@H](C)N)C(C)C [Entry 3-15]
< 5.00 | CC(=O)n1cc(CC2CCCN2C(=O)C(NC(=O)CN)C(C)C)c2ccccc21 (stereo not shown) [Entry 14-95]
> 7.00 | CC(=O)n1cc(C[C@@H]2CCCN2C(=O)[C@@H](NC(=O)[C@H](C)N)C(C)C)c2ccccc21 [Entry 14-94, N-{1S-[2S-(1-Acetyl-1H-indol-3-ylmethyl)-pyrrolidine-1-carbonyl]-2-methyl-propyl}-2S-amino-propionamide]
